Measured values published in patent EP3782997A1, “FUSED PYRIMIDINE COMPOUNDS AND PHARMACEUTICAL COMPOSITIONS THEREOF FOR THE TREATMENT OF FIBROTIC DISEASES” (Galapagos N.V., priority 2019, dated 2021).

target: hENPP2 (Homo sapiens, UniProt Q13822); experiment: Human ENPP2 (hENPP2) biochemical assay using LPC as substrate; settings: 150 µM LPC (palmitoyl 16:0), 37°C for 30 min
Experimental: The principle of the assay conswasts in quantifying the released choline with an enzymatic method using choline oxidase and peroxidase. Choline oxydation by choline oxydase releases betaine and peroxide. The latter was quantified in presence of HRP that converts the peroxide detection agent TOOS (CAS# 82692-93-1) and 4-aminoantipyrine into quinoneimine dye. The appearance of quinoneimine dye was measured spectrophotometrically at 555 nm and was proportional to the amount of choline released by ENPP2. Inhibition of ENPP2 results in a decrease of the signal.
Compound IC50 values were determined in a hENPP2 (UniProtKB/SwwassProt Sequence ref Q13822) biochemical assay using LPC as substrate.
5 µL of a dilution series of compound, starting from 50 µM highest concentration, 1/3 dilution, was added to the wells. hENPP2 was used at a final concentration of 1 µg/mL or 3 µg/mL (it will be appreciated by the skilled person that the potency read out was independent of the enzyme concentration). The enzyme was diluted in 50 mM Trwas-HCl pH 8.5, 500 mM NaCl, 5 mM KCl, 10 mM CaCl2, 0.1% fatty acid free BSA in a total volume of 10 µL. The reaction was started by the addition of 10 µL of 150 µM LPC (palmitoyl 16:0; Avanti Polar Lipids, Inc., Cat# 855675) diluted in the same buffer as described above and the mixture was incubated at 37°C for 30 min. The reaction was terminated and choline quantified by the addition of a 25 µL of a mixture containing 0.6 U/mL of choline oxidase, 0.6 U/mL of peroxydase, 1.8 mM TOOS, 1.2 mM amino-antipyrine, 20 mM EGTA (stop-developer solution) diluted in the buffer described above. […] was read on an Envision plate reader (PerkinElmer, Inc.) after an incubation of 30 min at room temperature (excitation 555 nm).

| SMILES | IC50 |
| --- | --- |
| COC(=O)[C@H]1CN(C(=O)c2ccc3[nH]nnc3c2)CC[C@H]1N1Cc2cnc(Nc3cc(C)cc(C)c3)nc2C1 (racemic) [Cpd 137, methyl (3S,4R/3R,4S)-1-(1H-benzotriazole-5-carbonyl)-4-[2-(3,5-dimethylanilino)-5,7-dihydropyrrolo[3,4-d]pyrimidin-6-yl]piperidine-3-carboxylate] | 0.01 to 100 nM |
| Cc1cc(C)cc(Nc2ncc3c(n2)CN(C2CCN(C(=O)c4ccc5[nH]nnc5c4)C(C)C2)C3)c1 (racemic) [compound 34, 1H-benzotriazol-5-yl-[(2S,4S/2R,4R)-4-[2-(3,5-dimethylanilino)-5,7-dihydropyrrolo[3,4-d]pyrimidin-6-yl]-2-methyl-1-piperidyl]methanone] | 0.01 to 100 nM |
| Cc1cc(C)cc(Nc2ncc3c(n2)CN([C@H]2CCN(C(=O)c4ccc5[nH]nnc5c4)C[C@@H]2C)C3)c1 (racemic) [compound 99, 1H-benzotriazol-5-yl-[(3S,4S/3R,4R)-4-[2-(3,5-dimethylanilino)-5,7-dihydropyrrolo[3,4-d]pyrimidin-6-yl]-3-methyl-1-piperidyl]methanone] | 0.01 to 100 nM |
| Cc1cc(C)cc(Nc2ncc3c(n2)CN([C@@H]2CN(C(=O)c4ccc5[nH]nnc5c4)C[C@@H]2F)C3)c1 (racemic) [compound 102, 1H-benzotriazol-5-yl-[(3R,4S/3S,4R)-3-[2-(3,5-dimethylanilino)-5,7-dihydropyrrolo[3,4-d]pyrimidin-6-yl] -4-fluoro-pyrrolidin-1-yl]methanone] | 500 to 1000 nM |
| Cc1cc(C)cc(Nc2ncc3c(n2)CCN([C@H]2CN(C(=O)c4ccc5[nH]nnc5c4)C[C@H]2F)C3)c1 (racemic) [compound 103, 1H-benzotriazol-5-yl-[(3S,4R/3R,4S)-3-[2-(3,5-dimethylanilino)-7,8-dihydro-5H-pyrido[4,3-d]pyrimidin-6-yl] -4-fluoro-pyrrolidin-1-yl]methanone] | 0.01 to 100 nM |
| COc1cc2[nH]nnc2cc1C(=O)N1CC[C@H](N2Cc3cnc(Nc4cc(C)cc(C)c4)nc3C2)[C@H](C)C1 (racemic) [compound 119, [(3R,4S/3S,4R)-4-[2-(3,5-dimethylanilino)-5,7-dihydropyrrolo[3,4-d]pyrimidin-6-yl]-3-methyl-1-piperidyl]-(6-methoxy-1H-benzotriazol-5-yl)methanone] | 0.01 to 100 nM |
| Cc1cc(C)cc(Nc2ncc3c(n2)CN([C@H]2CCN(C(=O)c4cc5nn[nH]c5cc4F)C[C@H]2C)C3)c1 (racemic) [compound 148, [(3R,4S/3S,4R)-4-[2-(3,5-dimethylanilino)-5,7-dihydropyrrolo[3,4-d]pyrimidin-6-yl]-3-methyl-1-piperidyl]-(6-fluoro-1H-benzotriazol-5-yl)methanone] | 0.01 to 100 nM |
| Cc1cc(C)cc(Nc2ncc3c(n2)CN([C@H]2CCN(C(=O)c4ccnc(NS(C)(=O)=O)c4)C[C@H]2C)C3)c1 (racemic) [compound 167, N-[4-[(3R,4S/3S,4R)-4-[2-(3,5-dimethylanilino)-5,7-dihydropyrrolo[3,4-d]pyrimidin-6-yl]-3-methyl-piperidine-1-carbonyl]-2-pyridyl]methanesulfonamide] | 0.01 to 100 nM |
| Cc1cc(C)cc(Nc2ncc3c(n2)CN([C@H]2CCN(C(=O)c4c[nH]nn4)C[C@H]2C)C3)c1 (racemic) [compound 172, [(3R,4S/3S,4R)-4-[2-(3,5-dimethylanilino)-5,7-dihydropyrrolo[3,4-d]pyrimidin-6-yl]-3-methyl-1-piperidyl]-(1H-triazol-4-yl)methanone] | 0.01 to 100 nM |
| Cc1cc(C)cc(Nc2ncc3c(n2)CN(C2CCN(C(=O)c4ccc5[nH]nnc5c4)CC2O)C3)c1 (single isomer, unassigned) [Cpd 110, 1H-benzotriazol-5-yl-[4-[2-(3,5-dimethylanilino)-5,7-dihydropyrrolo[3,4-d]pyrimidin-6-yl]-3-hydroxy-1-piperidyl]methanone] | 0.01 to 100 nM |
